# In patent US20040014734A1, “Farnesoid X-activated receptor agonists” (priority 2002, published 2004):
# Biological target: T1, FXR (Rattus norvegicus, UniProt Q62735)
# T1 construct: expressed in transfected cells; host or cells: Human embryonic kidney 293 cells
# Test: Reporter gene transactivation assay
# Type: cell-based
# Details: Human embryonic kidney 293 cells transfected with rFXR, hRXRβ, hGrip1 and DR-4 or IR-1 luciferase reporter
# Procedure: Human embryonic kidney 293 cells were seeded into 48-well culture plates at 2×10^4 cells per well in a Dulbecco's modified Eagle's medium (DMEM) supplemented with 10% fetal bovine serum. After 24 hours, cells were transfected by a calcium phosphate coprecipitation method with 250 ng of the pGL3/DR-4-luc reporter gene which consists of three copies of AGGTCAagccAGGTCA (DR-4) or pGL3/IR-1-luc which consists of three copies of GGGTCAcTGACCC (IR-1) fused to nucleotides −56 to +109 of the human c-fos promoter in front of the firefly luciferase gene in the plasmid basic pGL3 (Promega, Madison, Wis.), 40 ng pSG5/hRXRβ, 40 ng pR5/rFXR,10 ng pSG5/hGrip1, 0.4 ng CMV/R-luc (transfection normalization reporter, Promega) and 250 ng carrier DNA per well. […] After another 12-24 hours, cells were washed with PBS and refed with DMEM supplemented with 4% delipidated fetal bovine serum. Chemicals dissolved in ethanol were added in duplicate to the medium so that the final concentration of alcohol was 0.2%. After 24-48 hours, cells were harvested and luciferase activity was measured with a commercial kit (Promega Dual luciferase II) on a Monolight luminometer (Becton Dickenson, Mountain View, Calif.). FXR dimerizes with RXR to form an FXR/RXR heterodimer, which binds to both DR-4 response elements and IR-1 response elements in a ligand-dependent manner and transactivates the reporter gene expression.
# T1 sequence (Q62735 whole entry): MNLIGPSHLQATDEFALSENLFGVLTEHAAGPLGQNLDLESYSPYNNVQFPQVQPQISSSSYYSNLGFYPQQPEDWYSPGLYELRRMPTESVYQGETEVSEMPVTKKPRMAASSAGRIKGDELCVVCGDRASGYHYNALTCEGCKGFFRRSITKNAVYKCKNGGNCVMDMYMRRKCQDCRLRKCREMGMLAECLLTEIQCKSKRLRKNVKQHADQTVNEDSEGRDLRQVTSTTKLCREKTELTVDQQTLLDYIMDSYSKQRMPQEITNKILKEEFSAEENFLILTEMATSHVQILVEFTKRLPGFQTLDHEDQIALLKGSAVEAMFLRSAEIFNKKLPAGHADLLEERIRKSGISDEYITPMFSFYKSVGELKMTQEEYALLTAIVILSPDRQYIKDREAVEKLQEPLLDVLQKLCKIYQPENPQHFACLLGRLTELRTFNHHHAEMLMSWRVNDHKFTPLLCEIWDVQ
# T1 sequence (P28702 whole entry partner): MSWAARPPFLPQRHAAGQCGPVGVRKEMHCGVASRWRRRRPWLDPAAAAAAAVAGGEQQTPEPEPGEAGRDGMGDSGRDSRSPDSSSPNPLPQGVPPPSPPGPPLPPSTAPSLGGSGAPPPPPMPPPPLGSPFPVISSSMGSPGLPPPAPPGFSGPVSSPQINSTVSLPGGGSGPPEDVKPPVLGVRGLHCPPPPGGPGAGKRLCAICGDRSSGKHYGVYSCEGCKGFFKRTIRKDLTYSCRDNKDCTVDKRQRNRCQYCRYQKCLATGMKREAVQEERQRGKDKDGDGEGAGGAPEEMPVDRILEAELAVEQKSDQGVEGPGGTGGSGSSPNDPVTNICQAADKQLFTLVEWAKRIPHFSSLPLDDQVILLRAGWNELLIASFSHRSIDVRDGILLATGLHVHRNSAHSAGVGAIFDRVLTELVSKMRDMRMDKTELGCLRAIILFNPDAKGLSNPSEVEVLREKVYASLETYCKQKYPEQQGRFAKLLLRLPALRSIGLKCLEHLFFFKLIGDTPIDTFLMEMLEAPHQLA
# T1 sequence (Q15596 whole entry partner): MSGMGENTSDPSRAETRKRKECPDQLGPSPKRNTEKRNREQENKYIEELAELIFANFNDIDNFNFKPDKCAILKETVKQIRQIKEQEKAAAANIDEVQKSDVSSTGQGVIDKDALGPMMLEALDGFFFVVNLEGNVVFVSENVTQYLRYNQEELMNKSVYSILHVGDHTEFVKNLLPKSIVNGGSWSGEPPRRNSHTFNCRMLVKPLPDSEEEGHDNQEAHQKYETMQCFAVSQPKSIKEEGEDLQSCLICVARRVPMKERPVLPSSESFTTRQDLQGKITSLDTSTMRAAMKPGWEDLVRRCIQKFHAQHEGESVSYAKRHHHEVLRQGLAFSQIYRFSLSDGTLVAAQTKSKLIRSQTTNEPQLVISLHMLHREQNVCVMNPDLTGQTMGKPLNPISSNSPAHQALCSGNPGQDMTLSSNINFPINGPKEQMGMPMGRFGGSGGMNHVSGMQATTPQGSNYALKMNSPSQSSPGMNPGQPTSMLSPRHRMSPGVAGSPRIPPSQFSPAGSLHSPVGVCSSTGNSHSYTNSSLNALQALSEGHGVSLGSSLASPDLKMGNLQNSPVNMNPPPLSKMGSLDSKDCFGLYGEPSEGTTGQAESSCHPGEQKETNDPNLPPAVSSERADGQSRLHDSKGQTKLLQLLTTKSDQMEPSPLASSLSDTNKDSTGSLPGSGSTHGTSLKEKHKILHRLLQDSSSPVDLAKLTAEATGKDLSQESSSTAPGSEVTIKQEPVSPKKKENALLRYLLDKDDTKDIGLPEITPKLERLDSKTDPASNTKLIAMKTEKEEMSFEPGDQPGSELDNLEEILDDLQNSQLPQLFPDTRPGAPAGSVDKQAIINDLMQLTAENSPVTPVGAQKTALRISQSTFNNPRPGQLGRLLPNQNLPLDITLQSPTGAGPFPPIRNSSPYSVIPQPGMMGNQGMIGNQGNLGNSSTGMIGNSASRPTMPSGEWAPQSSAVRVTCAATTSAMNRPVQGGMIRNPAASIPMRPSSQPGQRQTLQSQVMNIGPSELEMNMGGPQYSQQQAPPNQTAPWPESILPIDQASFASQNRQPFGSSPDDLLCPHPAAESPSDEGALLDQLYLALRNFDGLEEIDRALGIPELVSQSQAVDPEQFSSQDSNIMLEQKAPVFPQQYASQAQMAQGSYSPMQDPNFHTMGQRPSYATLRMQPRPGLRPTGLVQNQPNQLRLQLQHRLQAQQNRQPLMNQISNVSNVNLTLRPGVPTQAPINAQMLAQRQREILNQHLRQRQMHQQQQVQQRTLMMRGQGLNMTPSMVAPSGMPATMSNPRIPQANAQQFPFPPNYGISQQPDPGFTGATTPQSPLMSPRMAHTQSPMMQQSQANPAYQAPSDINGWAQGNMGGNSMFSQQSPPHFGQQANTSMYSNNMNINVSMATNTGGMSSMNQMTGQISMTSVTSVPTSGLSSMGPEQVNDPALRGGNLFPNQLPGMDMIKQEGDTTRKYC
row,SMILES,"agonists of FXF (reporter gene transactivation, luciferase activity)"
1,C[C@H](CCC(=O)NCCS(=O)(=O)O)[C@H]1CC[C@H]2[C@@H]3CC[C@@H]4CCCC[C@]4(C)[C@H]3CC[C@]12C [N-sulfonylethyl-5β-cholanoic acid-24-amide],potent agonists
2,"C[C@H](CCC(=O)N(C)C)[C@H]1CC[C@H]2[C@@H]3CC[C@@H]4CCCC[C@]4(C)[C@H]3CC[C@]12C [N,N-dimethyl-5β-cholanoic acid-24-amide]",potent agonists
3,"C[C@H](CCC(=O)N(C)CC(=O)O)[C@H]1CC[C@H]2[C@@H]3CC[C@@H]4CCCC[C@]4(C)[C@H]3CC[C@]12C [cholamide, N-methyl-N-carboxymethyl-5β-cholanoic acid-24-amide]",potent agonists
4,C[C@H](CCC(=O)NNC=O)[C@H]1CC[C@H]2[C@@H]3CC[C@@H]4CCCC[C@]4(C)[C@H]3CC[C@]12C [N-formylamino-5β-cholanoic acid-24-amide],potent agonists
5,C[C@H](CCC(=O)NCCCl)[C@H]1CC[C@H]2[C@@H]3CC[C@@H]4CCCC[C@]4(C)[C@H]3CC[C@]12C [N-(2-chloroethyl)-5β-cholanoic acid-24-amide],potent agonists
6,"CC(CCS(=O)(=O)O)C1CCC2C3CCC4CCCCC4(C)C3CCC12C (centres unmarked) [cholanosulfonic acid, 3-(10,13-Dimethyl-hexadecahydro-cyclopenta[a]phenanthren-17-yl)-butane-1-sulfonic acid]",potent agonists
7,"CC(CCC(=O)O)C1CCC2C3CC=C4C=CCCC4(C)C3CCC12C (centres unmarked) [Δ^3,5-cholanoic acid, 4-(10,13-Dimethyl-2,7,8,9,10,11,12,13,14,15,16,17-dodecahydro-1H-cyclopenta[a]phenanthren-17-yl)-pentanoic acid]",potent agonists
8,C[C@H](CCC(=O)NCC(=O)O)[C@H]1CC[C@H]2[C@@H]3CC[C@@H]4CCCC[C@]4(C)[C@H]3CC[C@]12C [N-carboxymethyl-5β-cholanoic acid-24-amide],potent agonists
9,CNC(=O)CC[C@@H](C)[C@H]1CC[C@H]2[C@@H]3CC[C@@H]4CCCC[C@]4(C)[C@H]3CC[C@]12C [N-methyl-5β-cholanoic acid-24-amide],potent agonists
10,CON(C)C(=O)CC[C@@H](C)[C@H]1CC[C@H]2[C@@H]3CC[C@@H]4CCCC[C@]4(C)[C@H]3CC[C@]12C [N-methyl-N-methoxy-5β-cholanoic acid-24-amide],potent agonists
11,CNN(C)C(=O)CC[C@@H](C)[C@H]1CC[C@H]2[C@@H]3CC[C@@H]4CCCC[C@]4(C)[C@H]3CC[C@]12C [N-methyl-N-methylamino-5β-cholanoic acid-24-amide],potent agonists
12,"C[C@H](CCC(=O)NCC(F)(F)F)[C@H]1CC[C@H]2[C@@H]3CC[C@@H]4CCCC[C@]4(C)[C@H]3CC[C@]12C [N-(2,2,2-trifluoroethyl)-5β-cholanoic acid-24-amide]",potent agonists
13,CCOC(=O)CNC(=O)CC[C@@H](C)[C@H]1CC[C@H]2[C@@H]3CC[C@@H]4CCCC[C@]4(C)[C@H]3CC[C@]12C [N-ethoxycarbonylmethyl-5β-cholanoic acid-24-amide],potent agonists

# Same assay, conditions: relative to GW4064
row,SMILES,"higher efficacy than GW4064, a known non-steroidal FXR agonist"
1,"C[C@H](CCC(=O)N(C)CC(=O)O)[C@H]1CC[C@H]2[C@@H]3CC[C@@H]4CCCC[C@]4(C)[C@H]3CC[C@]12C [cholamide, N-methyl-N-carboxymethyl-5β-cholanoic acid-24-amide]",200 times
